Measured values published in PubChem BioAssay (NCI).
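Protocol summary: plate cells (96-well), add compound at 5 concentrations, incubate 48 h, interpolate endpoints linearly. At the GI50, growth is halved. TGI: total growth inhibition.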

Legend:
Experiment in all cases: DTP human tumour cell line panel, 48 h
SK-MEL-2 melanoma = tested on: SK-MEL-2 melanoma
NCI-H460 lung = tested on: NCI-H460 lung
DLD-1 colon = tested on: DLD-1 colon
MALME-3M melanoma = tested on: MALME-3M melanoma
HT29 colon = tested on: HT29 colon
U251 CNS = tested on: U251 CNS
A549 NSCLC = tested on: A549 NSCLC
HS 578T breast = tested on: HS 578T breast
MDA-MB-435 = tested on: MDA-MB-435
DMS 114 small cell lung = tested on: DMS 114 small cell lung

Structure (SMILES)	TGI (SK-MEL-2 melanoma) [µM]	TGI (NCI-H460 lung) [µM]	TGI (DLD-1 colon) [µM]	TGI (MALME-3M melanoma) [µM]	TGI (HT29 colon) [µM]	TGI (U251 CNS) [µM]	TGI (A549 NSCLC) [µM]	GI50 (SK-MEL-2 melanoma) [µM]	GI50 (HS 578T breast) [µM]	TGI (HS 578T breast) [µM]	GI50 (NCI-H460 lung) [µM]	GI50 (MDA-MB-435) [µM]	TGI (MDA-MB-435) [µM]	GI50 (MALME-3M melanoma) [µM]	GI50 (HT29 colon) [µM]	GI50 (U251 CNS) [µM]	GI50 (A549 NSCLC) [µM]	TGI (DMS 114 small cell lung) [µM]
Cc1cc(C)nc(NS(=O)(=O)c2ccc(NC(=O)c3cccc4c(Nc5ccc(S(=O)(=O)Nc6nc(C)cc(C)n6)cc5)c5ccccc5nc34)cc2)n1	70.4	> 100	54.2	56.7	43.9	38.6	68.2	–	–	–	–	–	–	–	–	–	–	–
Nc1ccccc1/C=N\Nc1ccccc1	> 100	> 100	–	> 100	> 100	> 100	> 100	65.4	> 100	> 100	2.35	4.5	> 100	> 100	> 100	> 100	4.7	–
Nc1nc(=O)n(C2CC(O)C(O)C(CO)O2)cc1F (stereo not given)	> 100	> 100	> 100	> 100	> 100	> 100	> 100	–	–	–	–	–	–	–	–	–	–	> 100
CCCCCCCCCCCCOC1C(CNC(=O)C2OC3OC(C)(C)OC3C2NC(=O)CN2CCN(c3ccccn3)CC2)OC2OC(C)(C)OC21 (stereo not given)	3.32	3.38	–	3.86	3.34	3.46	3.07	1.65	1.9	4.69	1.77	1.69	3.36	1.88	1.75	1.86	1.6	–
CC1(C)CC(=O)C(C(c2cccc(O)c2O)C2C(=O)CC(C)(C)CC2=O)C(=O)C1	> 100	> 100	–	> 100	> 100	> 100	> 100	–	–	> 100	–	–	> 100	–	–	–	–	–
C/C(=N\Nc1ccc2ccccc2n1)c1ccccc1O	> 100	> 100	–	> 100	> 100	> 100	> 100	–	–	> 100	–	–	> 100	–	–	–	–	–
Cc1ccc(Cl)cc1Nc1nc(C(F)(F)F)ccc1C(=O)N/N=C/c1c(Cl)cccc1Cl	4.86	4.81	–	5.44	> 100	5.78	> 100	1.94	1.04	6.18	0.578	2.15	11.6	1.69	0.791	0.471	1.5	–
N#Cc1ccc(/C=N\N2C(=O)c3ccccc3C2=O)cc1	> 100	> 100	> 100	> 100	> 100	–	> 100	–	–	–	–	–	–	–	–	–	–	> 100
O=C(CCCCCCC(=O)N/N=C/c1ccc(N(c2ccccc2)c2ccccc2)cc1)NO	7.81	8.58	–	15	6.76	4.46	9.51	2.71	6.14	31.2	1.54	3.16	18.5	3.25	2.26	1.75	2.99	–
O=C(c1ccccn1)c1nnn2ccccc12	> 100	> 100	–	> 100	> 100	> 100	> 100	–	–	> 100	–	–	> 100	–	–	–	–	–
CCCN(CCC)c1ccc(C=O)cc1	> 100	> 100	–	> 100	> 100	> 100	> 100	98.2	> 62.1	> 100	> 100	39.7	> 100	> 81.2	52	42	> 100	–
CCOc1cc(C=O)c2c(ccc3ccc(OC)c(OC)c32)c1OC	> 100	> 100	–	> 100	> 100	> 100	> 100	–	–	> 100	–	–	> 100	–	–	–	–	–
COC1OCC(OS(=O)(=O)c2ccc(C)cc2)C(OC(=O)c2ccccc2)C1OC(=O)c1ccccc1 (stereo not given)	> 100	> 100	–	> 100	> 100	> 100	> 100	5.72	1.89	27.4	3.87	0.662	3.94	13.7	3.96	4.72	6.14	–
CCOC(=O)c1c[nH]c2c(OCc3ccccc3)c3ccccc3c(O)c2c1=O	> 100	> 47.5	–	26.6	> 100	25.4	> 56	42.5	13.5	48	4.29	6.44	15.6	5.63	22.2	5.78	9.33	–
COc1ccc2nc3cc(Cl)ccc3c(NCCC(=O)OCC(O)C(O)C(O[C@H](C)C(=O)NC(C)C(=O)NC(CCC(N)=O)C(=O)OCc3ccccc3)C(C=O)NC(C)=O)c2c1 (stereo not given in full)	41.8	30.4	33.6	> 100	41.3	35.7	32.4	–	–	–	–	–	–	–	–	–	–	–
Nc1ncnc2c1c(-c1cccc(OCc3ccccc3)c1)cn2C1CC(CN2CCCC2)C1 (stereo not given)	3.35	7.65	–	5.7	1.63	2.96	7.17	1.66	1.6	4.19	1.66	1.29	3.08	2.06	0.117	1.51	0.939	–
O=C1Nc2ccccc2C1(c1ccc(O)c(F)c1)c1ccc(O)c(F)c1	31.5	47.8	–	46.6	48.5	48.6	81.8	11.4	0.3	4.44	19	3.06	11.2	13.7	22.7	14.5	19.1	–
